Measurements from PMC7819857, “Identification of Inhibitors of Integrin Cytoplasmic Domain Interactions With Syk” (Frontiers in Immunology, 2021).

System: Pyk-2 phosphorylation in THP-1 cells
Assay: Integrin α4β1-induced phosphorylation of Pyk-2 in THP-1 cells plated on CS-1
Type: cell-based, human
Details: 100 µM loaded by glycerol shock
Experimental: Syk phosphorylation assays were performed by immobilizing vascular cell adhesion molecule-1 (VCAM)-1 (3 ug/ml), CS-1-BSA (10 ug/ml), or specific monoclonal antibodies (anti-FcγRI mAb 276426, anti-α4β1 mAb 19H8, anti-β2 mAb 76C3, anti-αvβ3 mAb LM609 all at 5 ug/ml) overnight at 4°C in Tris-HCl pH 7.5, 150 mM NaCl, in 6-well plates (non-tissue culture treated, Becton Dickenson, cat# BD351146). Plates were then blocked with BSA (2% w/v) for 1 h at room temperature. […] After electrophoresis, proteins were transferred to nitrocellulose for 1 h 100 V room temperature, blocked in 5% non-fat milk in TBS-T, and probed with the indicated primary antibody at 1:1,000 overnight at 4°C, followed by species-appropriate HRP secondary antibody (Southern Biotech) at 1:5,000 (30 min at room temperature), and detected using Pierce West Pico (Thermo Scientific cat# 34580). […]
Figure 6 Selective inhibition of integrin signaling by ceftazidime. […] Data are expressed as mean ± range from duplicate determinations. […] Kinase activity is expressed as percent of maximum signal. Data are expressed as mean ± SEM (n = 3). **p < 0.01 (D) Selective effects of ceftazidime on integrin signaling. […] Phosphorylation of Syk (left and right panel) and Pyk-2 (center panel) was analyzed by immunoprecipitation and western blot. […] Results are expressed as the mean ± SEM. […]

CC(C)(O/N=C(\C(=O)N[C@@H]1C(=O)N2C(C(=O)[O-])=C(C[n+]3ccccc3)CS[C@H]12)c1csc(N)n1)C(=O)O [ceftazidime]
integrin α4β1 induced phosphorylation of Pyk-2: inhibited
